These results are taken from patent publication US10220069B2, “Compositions and methods for treating diabetes” (THE JOHNS HOPKINS UNIVERSITY, priority 2014, dated 2019).

Assay [1] relates to islets. In words: Islets incubated 48 hours with K54: cAMP dependent, ER stress, oxidative stress and NLRP3 inflammasome markers (Table 5). The assay is classed as cell-based, mouse. Conditions: K54 10 nM. As to the method: Kisspeptin1 Causes ERS and UPR in Islets Independently of Hyperglycemia. […] Because reduction in cAMP signaling in β-cells reduces IRS2 and PDX1 and provokes ERS/UPR and apoptosis 11,12, we examined whether kisspeptin action on β-cells may provoke ERS/UPR. Islets were incubated in 10 nM […]. To control for stimulus for increased insulin biosynthesis and potential UPR response, we incubated islets at 5 and 10 mM glucose. […] Incubation at 10 mM glucose stimulated oxidative stress ERS and NLRP-I markers, but less pronounced than […] at 5 mM glucose. Treatment with […] at high (10 mM) glucose further augmented ERS/UPR, oxidative stress and NLRP3-I markers. Thus, kisspeptin treatment even at normoglycemia stimulates in islets the ERS/UPR response more potently than hyperglycemia (glucose 10 mM) and […] aggravates ERS/UPR induced by hyperglycemia only (Table 5).

The target of assay [2] is T1, Kiss1R (Mus musculus, UniProt Q91V45).
T1 construct: Mouse brain, mouse islets, insulinoma cells, and human islets express Kiss1R; from tissue; host or cells: isolated mouse pancreatic islets (WT / Kiss1Rfl/fl, C57Bl/6 background)
In words: Glucose stimulated insulin secretion (GSIS) from cultured mouse islets, static incubation. On the set-up: GSIS at very high kisspeptin concentration: dose or concentration left out as unconfirmed. The assay is classed as cell-based. The method, then:
Isolated Islet Studies. Islet isolation was performed by collagenase digestion, gradient centrifugation, and three rounds of microscope-assisted manual picking of islets. Static incubation studies were conducted as previously described with 20 handpicked, equal-sized islets were studied in each group (Song et al., 2011). After overnight culture (37_C, 5% CO2, and 95% O2 in humid chamber) of isolated islets in RPMI 1640 (Mediatech) containing 5 mM glucose, 1% each Na-Pyruvate, HEPES, Penicillin/Streptomycin, and 0.2% BSA, islets were switched to either 10 or 20 mM glucose containing RPMI 1640. Where indicated, Kisspeptin-10 (0-100 nM, and […]), E4 (10 nM), or vehicle (PBS) was added. After 30 min incubation glucose concentrations, supernatant was taken for insulin measurements and pelleted islets were taken in acid ethanol (0.18M HCl in 70% ethanol) for insulin measurements in islets (ELISA, Alpco). Islet protein concentration was measured using the BCA method (Thermo Fisher).
Islet studies. Islet isolation was performed by collagenase digestion, gradient centrifugation and three rounds of microscope-assisted manual picking of islets (Song et al., 2011). Static incubation studies were conducted as previously described with 20 hand-picked equalized islets were studied in each group. Islets were cultured in RPMI 1640 medium (Invitrogen) containing 10 or 20 mM D-glucose (as indicated) and supplemented with 0.2% bovine serum albumin, 1% each Na-Pyruvate, HEPES, Penicillin/Streptomycin. After 30 min incubation glucose concentrations, supernatant was taken for insulin measurements and pelleted islets were taken in acid ethanol (0.18M HCl in 70% ethanol) for insulin measurements in islets (Alpco). Islet protein concentration was measured using the BCA method (Thermo Fisher).
Insulin secretion during static incubation. After overnight culture (37 C, 5% CO2, 95% O2 in humid chamber) of isolated islets in RPMI 1640 (Mediatech) containing 5 mM glucose, 1% each Na-Pyruvate, HEPES, Penicillin/Streptomycin and 0.2% bovine serum albumin (BSA), islets were switched to either 10 or 20 mM glucose containing RPMI 1640. […] After 30 min incubation glucose concentrations, supernatant was taken for insulin measurements and pelleted islets were taken in acid ethanol (0.18M HCl in 70% ethanol) for insulin measurements in islets (ELISA, Alpco). Islet protein concentration was measured using the BCA method (Thermo Fisher).

The target of assay [3] is T1, Kiss1R. In words: Islet cAMP concentrations (ELISA) in response to kisspeptin. Type of assay: cell-based. The method, then:
(§1) For studies with plasma incubation, a final concentration of plasma was 1% or 10% (vol/vol). […] Islets were taken in 0.18M HCL/70% ethanol to extract and measure total islet insulin content. cAMP concentrations were measured in islet extracts using ELISA (Enzo Life Sciences).

In assay [4] the target is T1, Kiss1R. In words: Islet perifusion assay, first and second phase GSIS. The assay is classed as cell-based. Conditions: isolated mouse islets. As to the method: Perifusion studies were performed as previously published (Song et al., 2013; Song et al., 2011) with slight modifications. The perifusate was Krebs ringer buffer (KRB) (37 C, pH 7.4) containing 0.2% BSA fraction V, 24 mM sodium bicarbonate and was gassed with 95% air and 5% CO2. Perifusion (1 ml/min) occurred for the first 30 minutes with a KRB containing 3 mM glucose for equilibration, after which time the perifusate was collected in 1 ml fractions. After additional 10 minutes, glucose in the perifusate was increased to 10 mM. […] Insulin was measured in selected individual eluent fractions at 30, 35, 40, 42, 45, 50, 55, 60 min (Alpco ELISA). The first 10 minutes after increasing glucose was defined as first phase, the period thereafter was defined as second phase of insulin secretion. At the end of the perifusion protocol, 30 mM KCL was administered into the perifusate to depolarize β-cells. Insulin levels were normalized to total islet protein, which was spectrophotometrically determined (Eppendorf) after completion of the perifusion protocol.

The target in assay [5] is T1, Kiss1R. In words: ipGTT with ip coinjection of kisspeptin and glucose. Type of assay: in vivo. As to the method:
Intraperitoneal glucose tolerance (ipGTT) and insulin tolerance (ipITT) tests were performed according to standard protocols (Song et al., 2013; Song et al., 2011). After 9 am-3 pm fasting, animals were administered 20% D-glucose (via ip injection), insulin 0.5 U/kg i.p. (Novolin), glucagon (100 μg/kg i.p. (Sigma)). […] Plasma for glucagon measurements was drawn from mice in the fed state at 9 am, unless otherwise noted for fasting studies. Plasma glucagon (Alpco) and kisspeptin1 (USCN Life Sciences Inc. E92559Ra) were measured by ELISA according to manufacturer's instructions including dilution of samples.

For assay [6], the target named is T2, receptor for the incretin hormone glucagon-like peptide-1 (GLP-1) (Mus musculus, UniProt O35659).
T2 construct: from tissue; host or cells: isolated mouse pancreatic islets (Kiss1Rfl/fl and Panc-ΔKiss1R)
T2 sequence (O35659 22-463): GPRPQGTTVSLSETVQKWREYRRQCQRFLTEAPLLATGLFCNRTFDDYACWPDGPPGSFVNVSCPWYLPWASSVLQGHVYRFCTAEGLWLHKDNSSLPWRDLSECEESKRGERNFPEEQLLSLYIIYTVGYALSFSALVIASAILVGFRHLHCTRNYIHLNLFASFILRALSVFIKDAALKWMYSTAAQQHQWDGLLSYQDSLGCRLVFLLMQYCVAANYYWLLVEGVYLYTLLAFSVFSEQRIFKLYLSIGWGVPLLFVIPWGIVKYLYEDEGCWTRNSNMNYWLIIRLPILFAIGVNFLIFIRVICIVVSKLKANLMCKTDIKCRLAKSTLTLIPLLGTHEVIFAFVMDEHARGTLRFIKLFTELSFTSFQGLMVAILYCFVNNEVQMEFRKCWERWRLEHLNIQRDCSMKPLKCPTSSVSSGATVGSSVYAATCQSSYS
In words: Islet cAMP synthesis in response to exendin-4. Type of assay: cell-based. The method, then:
as §1

[7] abbreviates: Kiss1Rfl/fl and Panc-DKiss1R islets.

T1 sequence (Q91V45 whole entry): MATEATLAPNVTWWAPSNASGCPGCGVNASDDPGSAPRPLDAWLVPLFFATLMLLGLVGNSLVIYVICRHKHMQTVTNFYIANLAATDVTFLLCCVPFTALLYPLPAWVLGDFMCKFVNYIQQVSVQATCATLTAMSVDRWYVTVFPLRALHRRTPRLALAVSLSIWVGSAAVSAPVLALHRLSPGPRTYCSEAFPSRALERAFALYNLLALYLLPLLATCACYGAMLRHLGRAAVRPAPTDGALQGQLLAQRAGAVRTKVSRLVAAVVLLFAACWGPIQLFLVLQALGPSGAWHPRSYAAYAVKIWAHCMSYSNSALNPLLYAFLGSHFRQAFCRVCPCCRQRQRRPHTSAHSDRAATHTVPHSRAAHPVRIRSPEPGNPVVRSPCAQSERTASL

In the case of “Gly-Thr-Ser-Leu-Ser-Pro-Pro-Pro-Glu-Ser-Ser-Gly-Ser-Arg-Gln-Gln-Pro-Gly-Leu-Ser-Ala-Pro-His-Ser-Arg-Gln-Ile-Pro-Ala-Pro-Gln- Gly-Ala-Val-Leu-Val-Gln-Arg-Glu- Lys-Asp-Leu-Pro-Asn-Tyr-Asn-Trp-Asn-Ser-Phe-Gly-Leu-Arg-Phe-NH2 [K54]”, in assay [1] (Hyperglycemia Glucose 10 mM), the “ATF5 (NLRP3 Inflammasome)” value came to 1.9 ± 0.4, the “CHOP (ER stress)” value is 2.2 ± 0.5, the “Catalase (Oxidative stress)” value turned out to be 8.8 ± 0.5 and the “IL-1β (NLRP3 Inflammasome)” value is 1.9 ± 0.2. Moreover, in assay [1] (Hyperglycemia Glucose 10 mM), the “IRS2 (cAMP dependent)” value was determined as 0.6 ± 0.2, the “PDI (ER stress)” value is reported as 1.8 ± 0.3, the “PDX1 (cAMP dependent)” value was 0.5 ± 0.3 and the “SOD1 (Oxidative stress)” value was determined as 3.2 ± 0.3. For the same substance, in assay [1] (Hyperglycemia Glucose 10 mM), the “SOD2 (Oxidative stress)” value was 2.4 ± 0.4, the “Spliced XBP-1 (ER stress)” value stood at 2.1 ± 0.4, the “TXNIP (NLRP3 Inflammasome)” value was 5.5 ± 0.3 and the “Total XBP-1 (ER stress)” value came to 1.5 ± 0.3. In assay [1] (Normoglycemia Glucose 5 mM), the “ATF5 (NLRP3 Inflammasome)” value worked out at 1.4 ± 0.4, the “CHOP (ER stress)” value worked out at 1.9 ± 0.4, the “Catalase (Oxidative stress)” value is 6.2 ± 0.6 and the “IL-1β (NLRP3 Inflammasome)” value is 1.7 ± 0.3. In addition, in assay [1] (Normoglycemia Glucose 5 mM), the “IRS2 (cAMP dependent)” value is recorded as 0.5 ± 0.3, the “PDI (ER stress)” value was 1.4 ± 0.4, the “PDX1 (cAMP dependent)” value came to 0.6 ± 0.2 and the “SOD1 (Oxidative stress)” value is 2.1 ± 0.4. In addition, in assay [1] (Normoglycemia Glucose 5 mM), the “SOD2 (Oxidative stress)” value stood at 1.9 ± 0.3, the “Spliced XBP-1 (ER stress)” value came out at 1.8 ± 0.5, the “TXNIP (NLRP3 Inflammasome)” value is listed as 4.8 ± 1.1 and the “Total XBP-1 (ER stress)” value stood at 1.4 ± 0.3. Further, the “GSIS at very high kisspeptin concentration” value in assay [2] (setting [7]) was “GSIS stimulation from both Kiss1Rfl/fl and Panc-DKiss1R islets”. For the same substance, in assay [2] (Kiss1Rfl/fl mouse islets, serum-free media, 10 or 20 mM glucose), the “lowest concentration suppressing GSIS” value amounted to 0.1 nM. Further, the “GSIS from Panc-DKiss1R islets” value in assay [2] (islets lacking Kiss1R, nanomolar concentrations) is “impervious to K54-mediated GSIS suppression”. Moreover, the “E4-potentiated GSIS” value in assay [2] (mouse islets cultured at 10 mM glucose, static incubation) is “dose-dependently suppressed”. Further, the “GSIS from Kiss1Rfl/fl (WT) mouse islets” value in assay [2] (static incubation, nanomolar concentrations (0-100 nM), 10 or 20 mM glucose) is given as “suppressed GSIS in a dose-dependent manner”. For the same substance, in assay [3] (Kiss1Rfl/fl (WT) islets), the “islet cAMP production in response to exendin-4 (E4)” value is given as “impaired islet cAMP production”. For the same substance, the “islet cAMP concentrations” value in assay [3] (WT mouse islets, 10 mM glucose, 10 nM) is reported as “lower cAMP concentrations”. Also, the “baseline and E4-induced cAMP concentrations in Panc-DKiss1R islets” value in assay [3] (islets lacking Kiss1R) is listed as “not affected”. For the same substance, the “E4-potentiated GSIS, first and second phase” value in assay [4] was “suppressed”. Also, the “first (0-10 min after glucose stimulation) and second phases of GSIS” value in assay [4] (10 mM glucose) is “suppressed”. In addition, the “in vivo GSIS in control (Kiss1rfl/fl, WT) mice” value in assay [5] (10 nmol ip with glucose during ipGTT) is recorded as “suppressed GSIS”. The “in vivo GSIS in Panc-DKiss1R mice” value in assay [5] (10 nmol ip, mice lacking pancreas Kiss1R) was “did not affect GSIS”. The “glucose tolerance in WT mice” value in assay [5] (acute administration, 10 nmol ip) is “impaired glucose tolerance”.
Consider exendin-4 [E4], for which the “islet cAMP synthesis” value in assay [6] (setting [7]) was “stimulates cAMP synthesis”. Also, the “reversal of K10-reduced cAMP production” value in assay [6] (isolated WT mouse islets treated with K10) is listed as “partially reversed”.
